Results taken from US4925869A, “Therapeutic agents” (Imperial Chemical Industries PLC, priority 1986, dated 1990).

Key:
Format in all cases: cell-based
[1] = target: T1, human, citrated platelet rich plasma (Homo sapiens, UniProt P21731); experiment: blood platelet aggregation test, U46619-induced aggregation of human citrated platelet rich plasma (test (b)); conditions: U46619, procedure (b)
T1 construct: aggregating human, citrated platelet rich plasma; from tissue; host or cells: human citrated platelet rich plasma (native platelets)
T1 sequence (P21731 1-343): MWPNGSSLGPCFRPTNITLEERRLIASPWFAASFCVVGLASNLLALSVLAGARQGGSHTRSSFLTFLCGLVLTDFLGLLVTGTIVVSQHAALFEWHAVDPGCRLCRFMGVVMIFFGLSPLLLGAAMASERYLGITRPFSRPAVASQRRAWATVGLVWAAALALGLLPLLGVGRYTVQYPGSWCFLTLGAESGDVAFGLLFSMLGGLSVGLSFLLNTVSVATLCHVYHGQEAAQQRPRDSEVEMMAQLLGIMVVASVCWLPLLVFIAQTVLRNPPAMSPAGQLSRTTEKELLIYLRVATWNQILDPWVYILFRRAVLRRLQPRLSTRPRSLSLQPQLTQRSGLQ
Description: (b) a blood platelet aggregation test based on that described by Born (Nature, 1962, 194, 927-929) and involving:
(i) aggregating human, citrated platelet rich plasma by addition of the TXA2 mimetic agent U46619 so that a dose-response curve is generated:
(ii) generating a dose-response curve for U46619 stimulated platelet aggregation in the presence of increasing amounts of test compound (generally in the range, 10^-5 M to 10^-10 M); and
(iii) calculating a KB value indicating potency of TXA2 antagonism for the test compound, averaged over several concentrations, from the calculated 50% response value for U46619 aggregation in the presence and absence of test compound: and (c) a bronchoconstriction test involving measuring the inhibition by test compound of the bronchoconstriction induced in the Konzett-Rossler, anaesthetised guinea-pig model (as modified by Collier and James, Brit. J. Pharmacol., 1967, 30, 283-307) by intravenous administration of the TXA2 mimetic agent, U46619 and involving: […]

[2] = tested on: human platelets; experiment: inhibition of arachidonic acid induced aggregation of human platelets
Description: The beneficial effects of combining one of the novel TXA2 antagonists of formula I defined hereinabove with a TXA2 synthetase inhibitor may be illustrated in vitro, for example by evaluating their effects in inhibiting arachidonic acid induced aggregation of human platelets, using standard procedures well known in the art.

[3] = target: T2, rat aortal strip (Rattus norvegicus, UniProt P34978); experiment: rat aortal strip model, antagonism of the TXA2 mimetic U46619 (test (a)); conditions: agonist U46619, procedure (a), read-out: pA2 (converted)
T2 construct: the rat aortal strip model developed by Kennedy et alia; from tissue; host or cells: rat aorta strip
T2 sequence (P34978 1-341): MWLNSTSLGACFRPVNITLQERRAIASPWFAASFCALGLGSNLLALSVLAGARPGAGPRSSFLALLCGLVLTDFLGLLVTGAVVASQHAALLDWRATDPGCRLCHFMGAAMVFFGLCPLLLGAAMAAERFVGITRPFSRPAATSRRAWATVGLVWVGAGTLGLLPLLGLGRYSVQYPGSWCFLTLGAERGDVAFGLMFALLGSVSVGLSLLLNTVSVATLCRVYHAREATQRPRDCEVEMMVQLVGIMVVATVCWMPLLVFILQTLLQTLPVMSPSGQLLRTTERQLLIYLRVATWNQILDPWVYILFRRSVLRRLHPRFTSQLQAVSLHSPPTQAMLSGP
Description: As stated earlier, the compounds of formula I are antagonists of one or more of the actions of TXA2, for example certain of its actions on blood platelets, the vasculature and/or the lung.
(a) The rabbit aortal strip model devised by Piper and Vane (Nature, 1969, 223, 29-35) or the rat aortal strip model developed by Kennedy et alia (Prostaglandins, 1982, 24, 667-689), using as agonist the TXA2 mimetic agent known as U46619 (described by R. L. Jones et alia. in "Chemistry, Biochemistry and Pharmacological Activity of Prostanoids" edited by S. M. Roberts and F. Scheinmann, at page 211, Pergamon Press, 1979);

Row | Kb [1] | Kb [3] | SMILES | inhibition of arachidonic acid induced aggregation of human platelets ([2]; tested alone at 10^-9 M) | inhibition of arachidonic acid induced aggregation of human platelets ([2]; tested alone at 10^-4 M)
1 | 17.5 nM | 0.195 nM | CC(C)(Oc1ccccc1)[C@H]1OC[C@@H](C/C=C\CCC(=O)O)[C@@H](c2ccccc2O)O1 (relative stereo) [Example 6, 4(Z) 6 ([2,4,5 cis]4-o-hydroxyphenyl-2-[1-methyl-1-phenoxyethyl] -1,3-dioxan-5-yl)hexenoic acid] | no significant inhibition | 
2 |  |  | O=C(O)c1ccc(OCCn2ccnc2)cc1 [dazoxiben, reference compound] |  | no significant inhibition
